Calls of active or inactive are those of the source.
How the values were obtained:
[1] = target: T1, RNA-binding protein pos-1 (Caenorhabditis elegans, UniProt G5EF15); experiment: disruptors of C. elegans POS-1 RNA interaction – biochemical, fluorescence polarization, dose response (AID 1964);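 note: purified POS-1 fused to maltose binding protein made in E. coli; potency of compounds blocking POS-1 binding to fluorescent RNA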
T1 sequence (G5EF15 whole entry): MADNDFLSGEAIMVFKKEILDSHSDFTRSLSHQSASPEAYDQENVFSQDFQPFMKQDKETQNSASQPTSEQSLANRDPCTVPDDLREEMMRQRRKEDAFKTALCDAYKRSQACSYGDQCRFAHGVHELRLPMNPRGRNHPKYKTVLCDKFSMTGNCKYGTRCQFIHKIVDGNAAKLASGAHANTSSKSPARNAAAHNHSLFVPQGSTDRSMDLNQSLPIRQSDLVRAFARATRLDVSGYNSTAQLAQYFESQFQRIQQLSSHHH

[2] = target: T2, Zinc finger protein mex-5 (Caenorhabditis elegans, UniProt Q9XUB2); experiment: potency of MEX-5 RNA-binding blockers – biochemical, C. elegans, fluorescence polarization, dose response (AID 1960)
T2 sequence (Q9XUB2 whole entry): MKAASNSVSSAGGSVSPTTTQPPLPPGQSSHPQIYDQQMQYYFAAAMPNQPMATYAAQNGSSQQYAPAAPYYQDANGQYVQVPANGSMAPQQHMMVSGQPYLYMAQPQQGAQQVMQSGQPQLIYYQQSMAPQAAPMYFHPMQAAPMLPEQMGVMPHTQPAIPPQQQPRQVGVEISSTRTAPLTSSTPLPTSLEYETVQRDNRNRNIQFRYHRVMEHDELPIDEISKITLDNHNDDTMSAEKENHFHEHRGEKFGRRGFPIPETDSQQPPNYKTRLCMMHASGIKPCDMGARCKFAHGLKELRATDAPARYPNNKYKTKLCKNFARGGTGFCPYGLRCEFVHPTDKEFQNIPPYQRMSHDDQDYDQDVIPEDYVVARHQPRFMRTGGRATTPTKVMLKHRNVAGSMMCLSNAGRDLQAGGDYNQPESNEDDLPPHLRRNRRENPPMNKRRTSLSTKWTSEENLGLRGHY

[3] = target: Induced myeloid leukemia cell differentiation protein Mcl-1 (Homo sapiens, UniProt Q07820); experiment: blockers of MCL1 binding to BIM peptide – biochemical, fluorescence polarization, BIM-BH3 peptide, 1536-well, dose response (AID 2217)
Bcl-2-like protein 1 = Bcl-2-like protein 1 (Homo sapiens, UniProt Q07817); experiment: blockers of BCLXL peptide binding – biochemical, fluorescence polarization, 1536-well, selectivity assay for MCL1 inhibitor project, dose response (AID 2218)
HeLa = experiment: viability loss in HeLa cells – cell-based, 24 h, cherry-picked samples, cytotoxicity control, dose response (AID 504726); assay type: functional; conditions: Homo sapiens;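 note: potency for cytotoxicity as loss of luminescence signal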
ORF 73 = ORF 73 (Human herpesvirus 8, UniProt O40947); experiment: KSHV LANA DNA-binding disruption – biochemical, fluorescence polarization, cherry-picked samples, dose response (AID 504725); design: species or system Human gammaherpesvirus 8;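 note: fluorescence polarization of a labeled DNA duplex reporting LANA DNA binding; potency is for inhibitors that block LANA binding to the DNA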
[4] = target: Beta-adrenergic receptor kinase 1 (Homo sapiens, UniProt P25098); experiment: aptamer displacement from bead-bound GRK2 – biochemical, cherry pick 1, bead flow cytometry, dose response (AID 504500)
[5] = target: DNA (cytosine-5)-methyltransferase 1 (Homo sapiens, UniProt P26358); experiment: inhibition of DNA methylation by DNMT1 – biochemical, fluorescent molecular beacon, confirmation (AID 602386); assay type: functional
[6] = target: T3, Small ubiquitin-related modifier 1 (Homo sapiens, UniProt P63165); experiment: SUMO1 protein interaction blockers, potency – biochemical, fluorescence polarization, uHTS hits, dose response (AID 624382); assay type: functional; conditions: read-out: IC50_Mean
[7] = target: T3, Small ubiquitin-related modifier 1; experiment: SUMO1 protein-protein binding blockers, potency – biochemical, FRET, dose response (AID 624383); assay type: functional; conditions: read-out: IC50_Mean
[8] = luciferase reporter signal suppression in cells – H4 neuroglioma cells, luminescence, dose response (AID 1990); assay type: functional, cell-based
[9] = Luminescence Cell-Based Dose Response HTS to Identify Inhibitors of 5'UTR Stem-Loop Driven Prion Protein mRNA Translation in H4 Neuroglioblastoma Cells. [Related pubchem assays: 1827 (Project Summary), 1813 (Primary HTS)]; assay type: functional
[10] = alpha-synuclein stem-loop luciferase translation blockers – H4 neuroglioma cells, luminescence, confirmation (AID 1988); assay type: functional, cell-based
[11] = target: T4, Heat shock factor protein 1 (Mus musculus, UniProt P38532); experiment: enhancement of HSF1-driven luciferase signal – cell-based, NIH3T3, luminescence, dose retest, confirmation (AID 435004); assay type: functional;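 note: stress induced by proteasome inhibitor MG132 added 30 min after compound; luciferase reporter driven by HSF1 response element in NIH3T3 cells; actives raise luminescence as potentiators of the MG132 stress response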
T4 sequence (P38532 whole entry): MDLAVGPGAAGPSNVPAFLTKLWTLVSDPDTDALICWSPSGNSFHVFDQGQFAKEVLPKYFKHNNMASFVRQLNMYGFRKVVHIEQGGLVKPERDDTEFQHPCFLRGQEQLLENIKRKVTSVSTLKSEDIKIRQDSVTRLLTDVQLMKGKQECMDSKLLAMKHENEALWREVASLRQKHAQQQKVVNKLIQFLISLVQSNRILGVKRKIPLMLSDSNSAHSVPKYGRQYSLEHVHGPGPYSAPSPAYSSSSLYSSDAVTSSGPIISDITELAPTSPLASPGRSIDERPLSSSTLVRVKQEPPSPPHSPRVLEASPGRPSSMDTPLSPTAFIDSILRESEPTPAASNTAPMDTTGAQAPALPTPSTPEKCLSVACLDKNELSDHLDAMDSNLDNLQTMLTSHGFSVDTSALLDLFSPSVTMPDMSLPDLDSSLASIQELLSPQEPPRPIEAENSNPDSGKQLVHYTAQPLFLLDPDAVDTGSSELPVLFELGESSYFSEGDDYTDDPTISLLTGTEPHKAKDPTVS

[12] = target: T5, Microphthalmia-associated transcription factor (Homo sapiens, UniProt O75030); experiment: reducers of TRPM1 reporter luminescence, concentration series – cell-based, SK-MEL-5, cherry-picked, set 3, MITF inhibitor project, dose response (AID 493073); assay type: functional;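 note: SK-MEL-5 melanoma cells with luciferase driven by the MITF target TRPM1 promoter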
T5 sequence (O75030 whole entry): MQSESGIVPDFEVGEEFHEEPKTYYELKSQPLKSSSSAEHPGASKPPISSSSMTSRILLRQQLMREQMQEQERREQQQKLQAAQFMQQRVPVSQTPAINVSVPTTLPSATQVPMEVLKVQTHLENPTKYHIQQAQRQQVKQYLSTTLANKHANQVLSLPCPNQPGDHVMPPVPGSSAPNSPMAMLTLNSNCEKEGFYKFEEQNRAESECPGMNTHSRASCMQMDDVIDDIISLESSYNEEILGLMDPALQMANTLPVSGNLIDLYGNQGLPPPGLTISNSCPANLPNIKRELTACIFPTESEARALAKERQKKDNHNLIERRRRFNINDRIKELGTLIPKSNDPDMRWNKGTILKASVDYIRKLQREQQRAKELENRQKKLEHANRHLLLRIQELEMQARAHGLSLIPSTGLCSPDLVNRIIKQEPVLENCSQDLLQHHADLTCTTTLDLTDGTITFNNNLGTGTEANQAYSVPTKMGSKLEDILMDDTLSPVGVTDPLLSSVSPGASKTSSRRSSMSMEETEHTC

HEK293 [13] = experiment: HEK293T cell viability loss, resazurin readout – resazurin fluorescence, cytotoxicity control for NF-kB activator project, SAR follow-up (AID 493251); assay type: functional, cell-based; conditions: Homo sapiens
Jurkat = experiment: SAR Analysis of small molecule inhibitors of T-cell specific antigen receptor-induced NF-kB activation in a Jurkat cell line using a luminescence assay - Set 2. [Related pubchem assays (depositor defined):AID435003, AID435012, AID465]; assay type: functional, cell-based; conditions: Homo sapiens
HEK293 [14] = experiment: SAR Analysis of small molecule inhibitors of T-cell specific antigen receptor-induced NF-kB activation in a HEK-293T cell line using a luminescence assay - Set 2. [Related pubchem assays (depositor defined):AID435003, AID435012, AID489026]; assay type: functional, cell-based; conditions: Homo sapiens
[15] = target: T6, Beta-2 adrenergic receptor (Homo sapiens, UniProt P07550); experiment: Dose response for HTS for Beta-2AR agonists via FAP method from Powderset1.; assay type: functional
[16] = target: T6, Beta-2 adrenergic receptor; experiment: ADRB2 activation measured by internalization – cell-based, FAP fluorogen, flow cytometry, cherry pick 1, dose response (AID 588763); assay type: functional
[17] = reduction of Shn3 3'UTR-driven luciferase in osteoblasts – cell-based, Clone20 osteoblasts, firefly luciferase, cherry-picked, dose response (AID 624132); assay type: functional;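 note: firefly luciferase luminescence from reporter carrying the Shn3 3'UTR in osteoblasts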
[18] = loss of viability in HepG2 cells – cell-based, CellTiter-Glo, cherry-picked, cytotoxicity control for Shn3 inhibitor project, dose response (AID 624134); assay type: functional
[19] = non-specific 3'UTR reporter inhibition in Clone20-Shn3RL – cell-based, Renilla luciferase, cherry-picked, counter-screen for Shn3 inhibitor project, dose response (AID 624133); assay type: functional

T6 sequence (P07550 whole entry): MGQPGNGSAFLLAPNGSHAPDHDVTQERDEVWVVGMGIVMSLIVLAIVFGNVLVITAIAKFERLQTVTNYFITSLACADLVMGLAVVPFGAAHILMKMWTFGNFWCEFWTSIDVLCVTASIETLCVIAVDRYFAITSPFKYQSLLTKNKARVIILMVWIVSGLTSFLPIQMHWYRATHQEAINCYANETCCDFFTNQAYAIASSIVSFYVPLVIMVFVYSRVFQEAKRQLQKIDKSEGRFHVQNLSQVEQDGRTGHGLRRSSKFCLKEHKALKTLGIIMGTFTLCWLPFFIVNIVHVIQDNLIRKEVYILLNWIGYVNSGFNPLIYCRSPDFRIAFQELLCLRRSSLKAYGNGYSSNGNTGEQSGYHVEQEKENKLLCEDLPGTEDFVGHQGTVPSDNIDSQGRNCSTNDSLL
T3 sequence (P63165 whole entry): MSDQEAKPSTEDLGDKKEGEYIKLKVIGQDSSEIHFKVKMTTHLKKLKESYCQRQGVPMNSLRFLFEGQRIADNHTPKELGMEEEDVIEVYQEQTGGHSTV
Chain of ORF 73 (O40947 whole entry): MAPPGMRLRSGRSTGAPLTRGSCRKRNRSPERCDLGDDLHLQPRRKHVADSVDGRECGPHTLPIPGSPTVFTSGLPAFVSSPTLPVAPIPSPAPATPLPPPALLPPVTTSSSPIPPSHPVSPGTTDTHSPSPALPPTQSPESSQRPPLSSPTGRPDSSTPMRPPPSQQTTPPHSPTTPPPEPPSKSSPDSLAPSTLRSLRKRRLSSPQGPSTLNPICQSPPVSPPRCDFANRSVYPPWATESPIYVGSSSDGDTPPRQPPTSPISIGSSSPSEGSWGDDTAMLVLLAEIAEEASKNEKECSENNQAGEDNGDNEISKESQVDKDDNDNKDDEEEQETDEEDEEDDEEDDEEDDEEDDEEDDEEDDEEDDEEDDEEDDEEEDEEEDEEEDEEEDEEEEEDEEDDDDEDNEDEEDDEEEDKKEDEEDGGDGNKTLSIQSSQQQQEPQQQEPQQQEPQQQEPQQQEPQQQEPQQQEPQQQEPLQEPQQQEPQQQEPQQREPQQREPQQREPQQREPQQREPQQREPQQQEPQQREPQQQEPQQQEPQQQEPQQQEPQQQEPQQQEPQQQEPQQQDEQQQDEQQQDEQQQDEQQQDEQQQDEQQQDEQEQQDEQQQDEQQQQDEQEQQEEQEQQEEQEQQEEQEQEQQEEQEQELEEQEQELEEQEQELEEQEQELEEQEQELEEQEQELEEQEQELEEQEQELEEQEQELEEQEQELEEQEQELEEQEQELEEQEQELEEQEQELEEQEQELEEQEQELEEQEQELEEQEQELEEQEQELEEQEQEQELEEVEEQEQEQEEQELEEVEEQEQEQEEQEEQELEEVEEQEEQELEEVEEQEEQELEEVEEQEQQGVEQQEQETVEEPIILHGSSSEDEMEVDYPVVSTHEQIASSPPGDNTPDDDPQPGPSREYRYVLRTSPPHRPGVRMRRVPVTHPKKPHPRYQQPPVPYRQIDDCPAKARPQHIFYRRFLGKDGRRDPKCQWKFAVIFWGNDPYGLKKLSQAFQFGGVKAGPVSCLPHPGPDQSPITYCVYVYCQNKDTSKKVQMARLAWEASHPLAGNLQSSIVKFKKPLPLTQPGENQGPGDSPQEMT
Chain of Beta-adrenergic receptor kinase 1 (P25098 whole entry): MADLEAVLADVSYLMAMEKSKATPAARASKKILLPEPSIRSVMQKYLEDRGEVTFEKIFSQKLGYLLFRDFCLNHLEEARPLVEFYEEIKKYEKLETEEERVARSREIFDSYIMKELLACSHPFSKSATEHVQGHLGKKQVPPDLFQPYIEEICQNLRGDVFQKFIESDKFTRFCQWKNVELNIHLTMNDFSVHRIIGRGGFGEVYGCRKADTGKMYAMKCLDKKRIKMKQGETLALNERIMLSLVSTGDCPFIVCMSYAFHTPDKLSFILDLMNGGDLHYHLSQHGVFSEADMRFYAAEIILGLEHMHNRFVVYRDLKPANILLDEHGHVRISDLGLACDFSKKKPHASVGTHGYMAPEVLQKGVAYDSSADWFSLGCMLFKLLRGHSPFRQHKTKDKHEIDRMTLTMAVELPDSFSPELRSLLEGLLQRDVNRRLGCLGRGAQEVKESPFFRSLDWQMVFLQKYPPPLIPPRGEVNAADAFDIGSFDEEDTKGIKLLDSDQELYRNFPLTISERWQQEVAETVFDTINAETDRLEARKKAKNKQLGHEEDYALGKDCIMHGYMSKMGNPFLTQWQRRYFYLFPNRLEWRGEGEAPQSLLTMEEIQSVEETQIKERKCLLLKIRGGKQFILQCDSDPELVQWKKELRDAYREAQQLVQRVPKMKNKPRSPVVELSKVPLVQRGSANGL
Chain of Bcl-2-like protein 1 (Q07817 whole entry): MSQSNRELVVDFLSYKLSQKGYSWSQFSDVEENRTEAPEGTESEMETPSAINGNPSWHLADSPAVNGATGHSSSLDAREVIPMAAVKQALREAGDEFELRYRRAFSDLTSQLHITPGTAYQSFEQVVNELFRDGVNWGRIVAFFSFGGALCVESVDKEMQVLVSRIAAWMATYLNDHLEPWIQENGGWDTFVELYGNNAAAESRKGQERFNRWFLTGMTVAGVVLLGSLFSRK
Chain of Induced myeloid leukemia cell differentiation protein Mcl-1 (Q07820 whole entry): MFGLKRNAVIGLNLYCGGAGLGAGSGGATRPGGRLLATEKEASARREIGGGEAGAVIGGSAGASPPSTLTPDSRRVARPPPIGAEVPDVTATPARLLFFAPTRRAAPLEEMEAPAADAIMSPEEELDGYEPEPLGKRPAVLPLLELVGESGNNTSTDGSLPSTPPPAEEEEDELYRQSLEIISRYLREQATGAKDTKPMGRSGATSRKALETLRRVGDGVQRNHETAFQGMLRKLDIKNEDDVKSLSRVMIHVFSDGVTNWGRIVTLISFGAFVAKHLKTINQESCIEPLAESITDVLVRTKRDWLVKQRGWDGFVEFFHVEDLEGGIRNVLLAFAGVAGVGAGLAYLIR
Chain of DNA (cytosine-5)-methyltransferase 1 (P26358 whole entry): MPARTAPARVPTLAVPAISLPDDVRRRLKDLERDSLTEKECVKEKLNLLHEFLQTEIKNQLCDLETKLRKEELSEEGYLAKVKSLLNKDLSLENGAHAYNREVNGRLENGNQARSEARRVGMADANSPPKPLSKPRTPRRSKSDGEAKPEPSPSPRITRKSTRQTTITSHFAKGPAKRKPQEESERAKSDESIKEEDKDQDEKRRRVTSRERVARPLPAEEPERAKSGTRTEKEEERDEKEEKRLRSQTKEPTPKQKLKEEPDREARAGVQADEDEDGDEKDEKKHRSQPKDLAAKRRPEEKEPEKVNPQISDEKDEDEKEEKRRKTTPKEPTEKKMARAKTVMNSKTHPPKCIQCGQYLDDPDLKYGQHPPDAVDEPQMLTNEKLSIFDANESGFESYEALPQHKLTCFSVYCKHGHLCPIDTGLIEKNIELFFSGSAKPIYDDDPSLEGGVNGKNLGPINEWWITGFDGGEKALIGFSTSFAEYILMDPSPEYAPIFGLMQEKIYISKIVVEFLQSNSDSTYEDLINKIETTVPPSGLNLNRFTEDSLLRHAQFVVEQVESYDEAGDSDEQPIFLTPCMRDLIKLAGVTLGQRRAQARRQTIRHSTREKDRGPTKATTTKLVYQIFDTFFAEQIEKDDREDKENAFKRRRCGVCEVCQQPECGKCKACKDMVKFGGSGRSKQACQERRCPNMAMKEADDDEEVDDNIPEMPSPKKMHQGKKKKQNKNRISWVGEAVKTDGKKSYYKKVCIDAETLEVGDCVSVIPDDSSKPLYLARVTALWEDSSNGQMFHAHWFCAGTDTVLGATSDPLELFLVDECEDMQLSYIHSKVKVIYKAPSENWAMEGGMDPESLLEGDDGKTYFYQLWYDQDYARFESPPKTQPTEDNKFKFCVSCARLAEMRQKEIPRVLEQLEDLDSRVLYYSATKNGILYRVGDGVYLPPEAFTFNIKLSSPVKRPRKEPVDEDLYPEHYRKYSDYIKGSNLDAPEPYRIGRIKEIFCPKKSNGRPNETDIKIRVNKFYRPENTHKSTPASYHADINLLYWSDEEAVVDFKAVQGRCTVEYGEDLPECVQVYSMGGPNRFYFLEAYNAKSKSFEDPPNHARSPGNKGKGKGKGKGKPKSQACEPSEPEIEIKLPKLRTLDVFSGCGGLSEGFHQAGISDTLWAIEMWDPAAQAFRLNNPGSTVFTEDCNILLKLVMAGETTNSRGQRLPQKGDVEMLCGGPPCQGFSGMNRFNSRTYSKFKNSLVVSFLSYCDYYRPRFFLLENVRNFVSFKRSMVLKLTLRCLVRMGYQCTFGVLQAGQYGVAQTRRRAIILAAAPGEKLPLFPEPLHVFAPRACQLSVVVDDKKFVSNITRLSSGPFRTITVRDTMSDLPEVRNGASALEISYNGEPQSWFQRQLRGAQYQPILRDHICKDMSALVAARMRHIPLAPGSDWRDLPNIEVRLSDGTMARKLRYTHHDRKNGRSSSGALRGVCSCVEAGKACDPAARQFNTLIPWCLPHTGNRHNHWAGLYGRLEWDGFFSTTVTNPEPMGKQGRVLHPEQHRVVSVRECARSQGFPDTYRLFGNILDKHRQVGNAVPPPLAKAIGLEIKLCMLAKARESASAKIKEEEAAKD

## O=C(O)c1ccc(-n2cccc2/C=C2/SC(=O)N(CC(=O)N3CCCC3)C2=O)cc1
[1]
  EC50: 89 µM (active)
[2]
  EC50: 78.2 µM (active)
[3]
  IC50: 15.9 µM (not active)
Bcl-2-like protein 1
  IC50: 104 µM (not active)
HeLa
  AC50: 44.7 µM (active)
ORF 73
  AC50: 30.3 µM (active)
[4]
  EC50: 33 µM (inactive)
[5]
  IC50: 3.5 µM (active)
[6]
  IC50: > 66.6 µM (inactive)
[7]
  IC50: 6.13 µM (active)

## O=C(Nc1ccc(-c2nc3ncccc3o2)cc1)c1ccc([N+](=O)[O-])o1
[8]
  EC50: > 120 µM (not active)
[9]
  EC50: > 120 µM (not active)
[10]
  EC50: > 60 µM (not active)
[11]
  EC50: 7.12 µM (active)
[12]
  AC50: 3.63 µM (active)
HEK293 [13]
  IC50: > 80 µM (inactive)
Jurkat
  IC50: > 79 µM (inactive)
HEK293 [14]
  IC50: > 80 µM (inactive)
[15]
  EC50: 0.152 µM (active)
[16]
  EC50: 0.636 µM (active)
[17]
  AC50: 1.34 µM (active)
[18]
  AC50: 22.6 µM (active)
[19]
  AC50: 11 µM (active)
